Patent US12319672B2, “Alpha-D-galactopyranoside derivatives” (Idorsia Pharmaceuticals Ltd, priority 2019, dated 2025)

Experiments:
human Gal-3 (hGal-3) = human Gal-3 (hGal-3) (Homo sapiens (Human), UniProt P17931); assay: Competitive binding assay: binding of biotinylated hGal-3 to microplate-adsorbed asialofetuin (ASF); conditions: Activity on hGal-3; mean values of several measurements
Method in brief: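 Biotin-hGal-3/hGal-1 300-1000 ng/mL + cpd (DMSO dilutions) on ASF-coated plate, 3 h 4° C; wash; SA-HRP 80 ng/mL 1 h 4° C; wash; ABTS. IC50 = mean of several runs. hGal-1 preferably Cys→Ser (all six) mutant.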

human Gal-1 (hGal-1) = assay: Competitive binding assay: binding of biotinylated hGal-1 to microplate-adsorbed asialofetuin (ASF); conditions: Activities on hGal-1; mean values of several measurements
Method in brief: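 Compounds diluted in DMSO competed with biotinylated hGal-3 or hGal-1 (300-1000 ng/mL) for binding to plate-adsorbed asialofetuin for 3 h at 4° C. Bound galectin was detected with streptavidin-peroxidase (80 ng/mL, 1 h, 4° C) and ABTS substrate; IC50 reported as mean of several measurements.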

Sequence of human Gal-3 (hGal-3) (P17931 whole entry): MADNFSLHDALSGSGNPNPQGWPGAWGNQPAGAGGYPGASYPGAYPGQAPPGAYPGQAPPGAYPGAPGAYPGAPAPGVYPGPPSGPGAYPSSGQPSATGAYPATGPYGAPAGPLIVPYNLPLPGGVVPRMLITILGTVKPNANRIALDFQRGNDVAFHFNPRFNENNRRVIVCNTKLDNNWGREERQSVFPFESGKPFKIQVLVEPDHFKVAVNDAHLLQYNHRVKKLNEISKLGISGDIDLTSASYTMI
Sequence of human Gal-1 (hGal-1) (P09382 2-135 limits assumed): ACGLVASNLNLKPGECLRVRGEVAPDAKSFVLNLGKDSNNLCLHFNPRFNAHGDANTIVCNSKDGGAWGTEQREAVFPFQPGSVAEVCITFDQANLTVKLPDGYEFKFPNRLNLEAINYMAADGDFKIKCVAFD

SMILES	IC50 (human Gal-3 (hGal-3))	IC50 (human Gal-1 (hGal-1))
CO[C@@H]1[C@@H](n2cc(-c3ccc(C)c(F)c3)nn2)[C@@H](O)[C@@H](CO)O[C@@H]1Cc1cc(C2CCN(S(C)(=O)=O)CC2)on1 [Ex 1.153]	67 nM	1600 nM
CO[C@@H]1[C@@H](n2cc(-c3ccc(Cl)c(F)c3F)nn2)[C@@H](O)[C@@H](CO)O[C@@H]1Cc1cc(C2CCN(S(C)(=O)=O)CC2)on1 [Ex 1.154]	33 nM	360 nM
CO[C@@H]1[C@@H](n2cc(-c3ccc(Cl)c(F)c3)nn2)[C@@H](O)[C@@H](CO)O[C@@H]1Cc1cc(C2CCN(S(C)(=O)=O)CC2)on1 [Ex 1.156]	31 nM	940 nM
CO[C@@H]1[C@@H](n2cc(-c3ccc(F)c(F)c3F)nn2)[C@@H](O)[C@@H](CO)O[C@@H]1Cc1cc(C2CCN(S(C)(=O)=O)CC2)on1 [Ex 1.157]	30 nM	94 nM
CO[C@@H]1[C@@H](n2cc(-c3ccc(C)c(F)c3F)nn2)[C@@H](O)[C@@H](CO)O[C@@H]1Cc1cc(C2CCN(S(C)(=O)=O)CC2)on1 [Ex 1.159]	57 nM	1530 nM
CO[C@@H]1[C@@H](n2cc(-c3cc(F)cc(Cl)c3)nn2)[C@@H](O)[C@@H](CO)O[C@@H]1Cc1cc(C2CCN(S(C)(=O)=O)CC2)on1 [Ex 1.160]	78 nM	730 nM
CO[C@@H]1[C@@H](n2cc(-c3ccc(Br)c(F)c3F)nn2)[C@@H](O)[C@@H](CO)O[C@@H]1Cc1cc(C2CCN(C(C)=O)CC2)on1 [Ex 1.164]	38 nM	1070 nM
CO[C@@H]1[C@@H](n2cc(-c3ccc(F)c(F)c3F)nn2)[C@@H](O)[C@@H](CO)O[C@@H]1Cc1cc(C2CCN(C(C)=O)CC2)on1 [Ex 1.166]	26 nM	260 nM
CO[C@@H]1[C@@H](n2cc(-c3ccc(C)c(F)c3)nn2)[C@@H](O)[C@@H](CO)O[C@@H]1Cc1cc(C2CCCCC2)on1 [Ex 1.171]	440 nM	13200 nM
CO[C@@H]1[C@@H](n2cc(-c3ccc(Cl)c(F)c3F)nn2)[C@@H](O)[C@@H](CO)O[C@@H]1Cc1cc(C2CCCCC2)on1 [Ex 1.172]	260 nM	57000 nM
CO[C@@H]1[C@@H](n2cc(-c3ccc(Br)c(F)c3F)nn2)[C@@H](O)[C@@H](CO)O[C@@H]1Cc1cc(C2CCCCC2)on1 [Ex 1.173]	440 nM	47800 nM
CO[C@@H]1[C@@H](n2cc(-c3ccc(Cl)c(F)c3)nn2)[C@@H](O)[C@@H](CO)O[C@@H]1Cc1cc(C2CCCCC2)on1 [Ex 1.174]	900 nM	18800 nM
CO[C@@H]1[C@@H](n2cc(-c3ccc(F)c(F)c3F)nn2)[C@@H](O)[C@@H](CO)O[C@@H]1Cc1cc(C2CCCCC2)on1 [Ex 1.175]	310 nM	4760 nM
CO[C@@H]1[C@@H](n2cc(-c3cc(F)c(Cl)c(F)c3)nn2)[C@@H](O)[C@@H](CO)O[C@@H]1Cc1cc(C2CCCCC2)on1 [Ex 1.176]	870 nM	> 100000 nM
CO[C@@H]1[C@@H](n2cc(-c3ccc(C)c(F)c3F)nn2)[C@@H](O)[C@@H](CO)O[C@@H]1Cc1cc(C2CCCCC2)on1 [Ex 1.177]	180 nM	64800 nM
CO[C@@H]1[C@@H](n2cc(-c3cc(F)cc(Cl)c3)nn2)[C@@H](O)[C@@H](CO)O[C@@H]1Cc1cc(C2CCCCC2)on1 [Ex 1.178]	980 nM	10300 nM
CO[C@@H]1[C@@H](n2cc(-c3ccc(C)c(F)c3)nn2)[C@@H](O)[C@@H](CO)O[C@@H]1Cc1cc(C2CCOCC2)on1 [Ex 1.180]	180 nM	4930 nM
CO[C@@H]1[C@@H](n2cc(-c3ccc(Cl)c(F)c3F)nn2)[C@@H](O)[C@@H](CO)O[C@@H]1Cc1cc(C2CCOCC2)on1 [Ex 1.181]	56 nM	8040 nM
CO[C@@H]1[C@@H](n2cc(-c3ccc(Br)c(F)c3F)nn2)[C@@H](O)[C@@H](CO)O[C@@H]1Cc1cc(C2CCOCC2)on1 [Ex 1.182]	82 nM	4730 nM
CO[C@@H]1[C@@H](n2cc(-c3ccc(Cl)c(F)c3)nn2)[C@@H](O)[C@@H](CO)O[C@@H]1Cc1cc(C2CCOCC2)on1 [Ex 1.183]	280 nM	5290 nM
CO[C@@H]1[C@@H](n2cc(-c3ccc(F)c(F)c3F)nn2)[C@@H](O)[C@@H](CO)O[C@@H]1Cc1cc(C2CCOCC2)on1 [Ex 1.184]	130 nM	1180 nM

Second part, the compound after the results:

IC50 (human Gal-3 (hGal-3))	IC50 (human Gal-1 (hGal-1))	SMILES
84 nM	10800 nM	CO[C@@H]1[C@@H](n2cc(-c3cc(F)c(F)c(F)c3)nn2)[C@@H](O)[C@@H](CO)O[C@@H]1Cc1cc(C2CCC(NC(=O)OC(C)(C)C)CC2)no1 (some centres unmarked) [Ex 1.134]
100 nM	9000 nM	CO[C@@H]1[C@@H](n2cc(-c3cc(F)c(C)c(F)c3)nn2)[C@@H](O)[C@@H](CO)O[C@@H]1CC1CC(C2CCN(C(=O)OC(C)(C)C)CC2)=NO1 (some centres unmarked) [Ex 1.135]
112 nM	4770 nM	CO[C@@H]1[C@@H](n2cc(-c3ccc(C)c(F)c3)nn2)[C@@H](O)[C@@H](CO)O[C@@H]1CC1CC(C2CCN(C(=O)OC(C)(C)C)CC2)=NO1 (some centres unmarked) [Ex 1.136]
48 nM	1880 nM	CO[C@@H]1[C@@H](n2cc(-c3ccc(C)c(F)c3F)nn2)[C@@H](O)[C@@H](CO)O[C@@H]1CC1CC(C2CCN(C(=O)OC(C)(C)C)CC2)=NO1 (some centres unmarked) [Ex 1.137]
130 nM	15300 nM	CN=[S@@](=O)(C(C)C)N1CCC(c2cc(C[C@H]3O[C@H](CO)[C@H](O)[C@H](n4cc(-c5cc(F)c(F)c(F)c5)nn4)[C@H]3OC)no2)CC1 [Ex 1.138]
42 nM	1130 nM	CN=[S@](=O)(C(C)C)N1CCC(c2cc(C[C@H]3O[C@H](CO)[C@H](O)[C@H](n4cc(-c5cc(F)c(F)c(F)c5)nn4)[C@H]3OC)no2)CC1 [Ex 1.139]
49 nM	690 nM	CO[C@@H]1[C@@H](n2cc(-c3ccc(Cl)c(F)c3F)nn2)[C@@H](O)[C@@H](CO)O[C@@H]1CC1CC(C2CCN(C(=O)OC(C)(C)C)CC2)=NO1 (some centres unmarked) [Ex 1.140]
97 nM	790 nM	CO[C@@H]1[C@@H](n2cc(-c3ccc(Br)c(F)c3F)nn2)[C@@H](O)[C@@H](CO)O[C@@H]1CC1CC(C2CCN(C(=O)OC(C)(C)C)CC2)=NO1 (some centres unmarked) [Ex 1.141]
71 nM	1320 nM	CO[C@@H]1[C@@H](n2cc(-c3ccc(Br)c(F)c3F)nn2)[C@@H](O)[C@@H](CO)O[C@@H]1CC1CC(C2CCNCC2)=NO1 (some centres unmarked) [Ex 1.142]
100 nM	190 nM	CO[C@@H]1[C@@H](n2cc(-c3ccc(F)c(F)c3F)nn2)[C@@H](O)[C@@H](CO)O[C@@H]1CC1CC(C2CCN(C(=O)OC(C)(C)C)CC2)=NO1 (some centres unmarked) [Ex 1.143]
180 nM	740 nM	CO[C@@H]1[C@@H](n2cc(-c3ccc(F)c(F)c3F)nn2)[C@@H](O)[C@@H](CO)O[C@@H]1CC1CC(C2CCNCC2)=NO1 (some centres unmarked) [Ex 1.144]
170 nM	1560 nM	CO[C@@H]1[C@@H](n2cc(-c3cc(F)c(Cl)c(F)c3)nn2)[C@@H](O)[C@@H](CO)O[C@@H]1CC1CC(C2CCN(C(=O)OC(C)(C)C)CC2)=NO1 (some centres unmarked) [Ex 1.145]
240 nM	4660 nM	CO[C@@H]1[C@@H](n2cc(-c3cc(F)c(Cl)c(F)c3)nn2)[C@@H](O)[C@@H](CO)O[C@@H]1CC1CC(C2CCNCC2)=NO1 (some centres unmarked) [Ex 1.146]
84 nM	470 nM	CCOC(=O)N1CCC(c2cc(C[C@H]3O[C@H](CO)[C@H](O)[C@H](n4cc(-c5ccc(Cl)c(F)c5)nn4)[C@H]3OC)no2)CC1 [Ex 1.149]
23 nM	140 nM	CCOC(=O)N1CCC(c2cc(C[C@H]3O[C@H](CO)[C@H](O)[C@H](n4cc(-c5ccc(F)c(F)c5F)nn4)[C@H]3OC)no2)CC1 [Ex 1.150]
19 nM	1020 nM	CCOC(=O)N1CCC(c2cc(C[C@H]3O[C@H](CO)[C@H](O)[C@H](n4cc(-c5ccc(C)c(F)c5F)nn4)[C@H]3OC)no2)CC1 [Ex 1.151]
39 nM	1510 nM	CO[C@@H]1[C@@H](n2cc(-c3cc(F)c(C)c(F)c3)nn2)[C@@H](O)[C@@H](CO)O[C@@H]1Cc1cc(C2CCN(S(C)(=O)=O)CC2)on1 [Ex 1.152]
66 nM	1520 nM	CO[C@@H]1[C@@H](n2cc(-c3cc(F)c(Cl)c(F)c3)nn2)[C@@H](O)[C@@H](CO)O[C@@H]1Cc1cc(C2CCN(S(C)(=O)=O)CC2)on1 [Ex 1.158]
34 nM	1660 nM	CO[C@@H]1[C@@H](n2cc(-c3cc(F)c(C)c(F)c3)nn2)[C@@H](O)[C@@H](CO)O[C@@H]1Cc1cc(C2CCN(C(C)=O)CC2)on1 [Ex 1.161]
37 nM	740 nM	CO[C@@H]1[C@@H](n2cc(-c3ccc(C)c(F)c3)nn2)[C@@H](O)[C@@H](CO)O[C@@H]1Cc1cc(C2CCN(C(C)=O)CC2)on1 [Ex 1.162]
59 nM	680 nM	CO[C@@H]1[C@@H](n2cc(-c3ccc(Cl)c(F)c3)nn2)[C@@H](O)[C@@H](CO)O[C@@H]1Cc1cc(C2CCN(C(C)=O)CC2)on1 [Ex 1.165]
29 nM	930 nM	CO[C@@H]1[C@@H](n2cc(-c3ccc(C)c(F)c3F)nn2)[C@@H](O)[C@@H](CO)O[C@@H]1Cc1cc(C2CCN(C(C)=O)CC2)on1 [Ex 1.168]
154 nM	470 nM	CO[C@@H]1[C@@H](n2cc(-c3cc(F)cc(Cl)c3)nn2)[C@@H](O)[C@@H](CO)O[C@@H]1Cc1cc(C2CCN(C(C)=O)CC2)on1 [Ex 1.169]
400 nM	> 100000 nM	CO[C@@H]1[C@@H](n2cc(-c3cc(F)c(C)c(F)c3)nn2)[C@@H](O)[C@@H](CO)O[C@@H]1Cc1cc(C2CCCCC2)on1 [Ex 1.170]
150 nM	11000 nM	CO[C@@H]1[C@@H](n2cc(-c3cc(F)c(C)c(F)c3)nn2)[C@@H](O)[C@@H](CO)O[C@@H]1Cc1cc(C2CCOCC2)on1 [Ex 1.179]
